# Assay results taken from US20240269120A1, “Method for Treating an Autoimmune and Inflammatory Disease” (Cellestia Biotech AG, priority 2021, published 2024).
# Where “and” joins values, the source holds several entries; their conditions need not be identical. Identical values can stand only once.
# Tests used:
# [1] = test system: Treg cells (CD4+CD25highFOXP3+); assay: In vivo dosing of C57BL6 mice, Treg cells in spleen; design: species or system mouse; conditions: C57BL6 wild type mice, 60 mg/kg QD
# Protocol: C57BL6 wild type mice were treated with 6-(4-tert-butylphenoxy)pyridin-3-amine at 60 mg/kg dose (QD). […] (*) p<0.05. Each bar represents the mean±SEM (N=3 replicates).
# (§1) In vivo treatment of mice and pharmacodynamic response: Mice experiments were performed in compliance with authorization to perform animal experiments (VD3323). Briefly, 6-8 weeks old wild type C57Bl6 mice were subcutaneously or intraperitoneally dosed with vehicle or compounds for different durations. Mice were sacrificed, spleens were harvested 24 hours post-last dosing. Splenocytes were analyzed for cell surface and intracellular markers expression using flow cytometry. RNA expression analyses were performed using quantitative real time PCR.
# (§2) Flow cytometry analysis: Flow cytometry analysis was performed to quantify cell surface and intracellular markers expression and measure cell division index.
# [2] = test system: IL-12a mRNA; assay: Quantitative RT-PCR of splenocyte mRNA after in vivo dosing: IL-12a; design: species or system mouse; conditions: in vivo treated mice vs vehicle; p<0.01; FIG. 4
# Protocol: FIG. 4: In vivo 6-(4-tert-butylphenoxy)pyridin-3-amine dosing leads to a downregulation of pro-inflammatory cytokine IL-12a mRNA in mouse spleen. […] Each bar represents the mean±SD (N=3 replicates). (**) p<0.01
# as §1
# [3] = test system: activated CD4 T cells; assay: Cell proliferation assay (Cell trace violet), activated CD4 T cells; assay type: cell-based; conditions: control 0%
# Protocol: (§3) Following PBMC injections, mice were treated with vehicle or 6-(4-tert-butylphenoxy)pyridin-3-amine or Ruxolitinib starting at day 0. Mice were monitored from 60-85 days for symptoms of GvHD and scored according to a standard clinical scoring system for GvHD (Naserian et al., 2018) (see table 1) and a cumulative clinical score was obtained by addition of clinical score for individual parameters. A maximum score of 6 is measured when reaching endpoint. Cell proliferation assay: The effect of compounds on T cell proliferation was quantified using Cell trace violet (CTV). PBMCs/splenocytes were incubated with CTV for 20 minutes at 37° C. Cells were washed twice with RPMI complete medium. CTV labelled cells were stimulated with anti-CD3 and anti-CD28 antibodies and treated with control or compounds and cultured at 37° C. for 96 hours. The cell division index was measured by flow cytometry.
# as §2
# [4] = test system: activated CD8 T cells; assay: Cell proliferation assay (Cell trace violet), activated CD8 T cells; assay type: cell-based; conditions: control 0%
# Protocol: as §3, §2
# [5] = test system: IL-6; assay: ELISA of supernatant from activated human PBMC cultures: IL-6; assay type: cell-based; conditions: control 0%
# Protocol: (§4) Human PBMCs and mouse splenocyte in vitro stimulation and treatment: Human peripheral blood mononuclear cells (PBMCs) and mouse splenocytes from donors were stimulated in vitro with anti-CD3 and anti-CD28 antibodies. The stimulated cells were simultaneously treated with compounds for 96 hours. The T cells were profiled for different cell surface and intracellular markers and proliferation by flow cytometry.
# (§5) ELISA assay: Supernatant from activated human PBMC cultures described above was separated from cells at the end of culture time. Key cytokines (IL-6, IFN-γ, IL-17) were quantified using sandwich ELISA reagents set (Diaclone) following manufacturer's instruction manual.
# [6] = test system: IL-17; assay: ELISA of supernatant from activated human PBMC cultures: IL-17; assay type: cell-based; conditions: control 0%
# Protocol: as §4, §5
# [7] = test system: IFNG; assay: Cytokine profiling in human patient plasma (MSD): IFNG; assay type: in vivo; conditions: human patients, day 29 on treatment vs baseline pre-treatment
# Protocol: Cytokine profiling in human plasma samples: Plasma samples from patients treated with 6-(4-tert-butylphenoxy)pyridin-3-amine were collected and stored at −80° C. until analysed. Cytokine and chemokine profiling was performed using MesoScale Discovery (MSD) platform and three assay panels: 1) Pro-inflammatory panel human, 2) Human IL-6 assay S-Plex, 3) Human IL-10 assay S-Plex.
# [8] = test system: NSG mice injected with human PBMCs (GvHD); assay: Humanized GvHD mouse model, ex vivo treated human PBMCs, no in vivo treatment; design: GvHD clinical score: Body weight loss: dose or concentration left out as unconfirmed; conditions: day 21
# Protocol: Humanized GvHD mouse model: 6-8 weeks old NSG mice were intraperitoneally injected with 10 million human peripheral blood mononuclear cells (PBMCs) as below:
# Ex vivo treatment of PBMCs: 10 million human PBMCs from healthy donor #1 were ex-vivo treated with DMSO and […] of 6-(4-tert-butylphenoxy)pyridin-3-amine for 6 hours. Ex-vivo treated PBMCs were intraperitoneally injected into mice (10 million per mouse). 10 NSG mice were injected with DMSO pre-treated PBMCs and 10 NSG mice were injected with 6-(4-tert-butylphenoxy)pyridin-3-amine pre-treated PBMCS. Following PBMC injections mice were monitored for up to 42 days for symptoms of GvHD development as measured by standardized GvHD clinical score system. No in-vivo drug treatment was administered.
# A cumulative GvHD clinical score was calculated by addition of scores for individual parameters (e.g. cumulative score=BWL+posture+activity+fur texture+skin integrity+paleness).
# [9] = test system: IFNG; assay: Cytokine analysis in allogeneic bone marrow transplant (LEGENDplex): IFNG; assay type: in vivo, mouse; conditions: allo-BM+splenocyte transplanted mice, day 36, vs vehicle; FIG. 6
# Protocol: (§6) Allogeneic Bone marrow transplant: Recipient Balb/c mice were irradiated twice 3.75Gy (T=0 and T=4 h) in an X-ray source irradiator before transplantation at T=8 h. Treatment with antibiotics (Nopil) and analgesic (Dafalgan) was supplemented to drinking water 4 days before injection. Irradiated recipient Balb/c mice were transplanted with 5 million T cell depleted bone marrow+1 million splenocytes. Allogeneic recipient animals were treated with vehicle or 6-(4-tert-butylphenoxy)pyridin-3-amine subcutaneously at 20 mg/kg for two days immediately after allo-BM transplant, given a 10 days treatment holiday to recover body weight loss due to whole body irradiation and then treatment continued at 20 mg/kg. […] Animals were monitored for symptoms of GvHD development (severe body weight loss, alopecia and diarrhea.
# (§7) Cytokine analysis in allogeneic Bone marrow transplant: The recipient animals were bled on day 36 and blood plasma was extracted to determine inflammatory cytokine concentration (IFNγ, IL-6, IL-17a) by LEGENDplex™ multiplexed assay.
# [10] = test system: IL-17; assay: Cytokine analysis in allogeneic bone marrow transplant (LEGENDplex): IL-17; assay type: in vivo, mouse; conditions: allo-BM+splenocyte transplanted mice, day 36, vs vehicle; FIG. 6
# Protocol: as §6, §7
# [11] = test system: regulatory T cells; assay: Regulatory T cells in allo-BM + splenocyte transplanted mice; assay type: in vivo, mouse
# Protocol: as §6
# [12] = PBMCs pre-treated ex-vivo, DMSO group 0.71
smiles,measurement,setting,value
CC(C)(C)c1ccc(Oc2ccc(N)cn2)cc1 [6-(4-tert-butylphenoxy)pyridin-3-amine],Treg cells (CD4+CD25highFOXP3+) number,"[1]; p<0.05, FIG. 2a",significantly increased
same,Treg cells (CD4+CD25highFOXP3+) frequency,"[1]; p<0.05, FIG. 2b",significantly increased
same,IL-12a transcript in splenocytes,[2],downregulation
same,Percentage inhibition of CD4 T cells (proliferation),[3],81%
same,Percentage inhibition of CD8 T cells (proliferation),[4],56%
same,Percentage downregulation of IL-6,[5],61%
same,Percentage downregulation of IL-17,[6],38%
same,Percentage downregulation of IFNG in blood plasma,[7],90% (day 29 on treatment)
same,GvHD clinical score: Body weight loss,"[8]; PBMCs pre-treated ex-vivo (6 hours), DMSO group 1.0",0
same,GvHD clinical score: Skin integrity,"[8]; PBMCs pre-treated ex-vivo, DMSO group 0.14",0
same,GvHD clinical score: Fur texture,"[8]; PBMCs pre-treated ex-vivo, DMSO group 0.57",0.14
same,GvHD clinical score: Activity score,[8]; [12],0.14
same,GvHD clinical score: Paleness,[8]; [12],0
same,GvHD clinical score: Posture,[8]; [12],0.14
same,Cumulative GvHD score,"[8]; sum of individual scores, DMSO group 3.84",decreased cumulative GvHD score significantly and 0.42
same,IFNG in blood plasma,[9],downregulation
same,IL-17 in blood plasma,[10],downregulation
same,regulatory T cells,[11],expansion of regulatory T cells
